Laboratory results: patent US20260034103A1, “COMPOSITIONS AND METHODS FOR IMPROVING MEMORY AND COGNITION” (priority 2022, published 2026)

What was measured:
Long-Evans rats = assay: Novel object recognition test, scopolamine-induced cognitive impairment; assay type: in vivo, rat; details: 0.1 and 1 mg/kg PO
Description: Total exploration time of two identical objects in the acquisition trial was measured manually and indicated as the mean±SEM (n=8). No statistical difference was found in the total exploration time among the different groups by one-way ANOVA (P=0.115).
(§1) NDI was calculated using the following equation: novel object interaction time/total interaction time×100(%). Data are represented as the mean±SEM (n=8). Significant difference from control group was indicated by ***P<0.001 (Student's t-test). Significant differences from scopolamine-treated vehicle group were indicated by ##P<0.01 (Dunnett test). Significant difference from scopolamine-treated vehicle group were indicated by †††P<0.001 (Student's t-test).
Exploration time of each object in retention trial was measured manually and presented as the mean±SEM (n=8). Significant differences from familiar object interaction were indicated by **P<0.01, *P<0.05 (paired t-test).
A novel object recognition test (which evaluates visual learning and memory) was conducted to investigate the effect of compound 1 on scopolamine-induced cognitive impairment in Long-Evans rats. Donepezil was used as a positive control. Scopolamine at 0.1 mg/kg SC reduced the novelty discrimination index (NDI) a measure of cognitive function (FIGS. 4-6).

Wistar rats = assay: Novel object recognition test, subchronic PCP-induced cognitive impairment; assay type: in vivo, rat
Description: The total exploration time of two identical objects in the acquisition trial was measured manually and indicated as the mean±SEM (n=10). No statistical difference was found in the total exploration time among the different groups by one-way ANOVA (P=0.340).
as §1, with “(n=10).” for “(n=8).”, “PCP-treated” for “scopolamine-treated vehicle”, “##P<0.01, #P<0.05” for “##P<0.01”, “††P<0.01” for “†††P<0.001”
Exploration time of each object in retention trial was measured manually and presented as the mean±SEM (n=10). Significant differences from familiar object interaction were indicated by ***P<0.001, **P<0.01 (paired t-test).
A novel object recognition test was conducted to investigate the effect of SP-624 on subchronic PCP-induced cognitive impairment in Wistar rats. Clozapine was used as a positive control.

rats = assay: Freely behaving rodent model of long-term potentiation (LTP); assay type: in vivo, rat; details: 0.01 and 0.1 mg/kg IV
Description: Amplitudes of fEPSP are normalized to baseline and plotted against time.
A freely behaving rodent model of long-term potentiation (LTP), a frequently studied form of synaptic plasticity, was employed. LTP is a persistent increase in the strength of synaptic connections between neurons, and is a cellular mechanism widely considered to underlie the processes of learning and memory. At 0.01 and 0.1 mg/kg IV compound 1 increased LTP compared to vehicle controls (FIGS. 10-11).

[1] = test system: adult subjects with major depressive disorder (MDD); assay: Phase 2 clinical trial in MDD: QIDS-SR Item #10 Concentration/Decision Making; assay type: in vivo, human; design: key to QIDS-SR Item #10 score, Median / QIDS-SR Item #10 score, Min / QIDS-SR Item #10 score, Max: QIDS-SR Item 10 scored 0 (no change) to 3 (cannot concentrate/decide); details: 20 mg/day; for QIDS-SR Item #10 Change from Baseline, Max / QIDS-SR Item #10 Change from Baseline, Mean (SD) / QIDS-SR Item #10 Change from Baseline, Median / QIDS-SR Item #10 Change from Baseline, Min / QIDS-SR Item #10 score, Max / QIDS-SR Item #10 score, Mean (SD) / QIDS-SR Item #10 score, Median / QIDS-SR Item #10 score, Min: mITT, Females
Description: (§2) A Phase 2, multicenter, double-blind, randomized, placebo-controlled study of the safety and efficacy of SP-624 in the treatment of adult subjects with major depressive disorder (MDD) as defined by the Diagnostic and Statistical Manual of Mental Disorders, Fifth Edition (DSM-5) was carried out. Following the successful completion of a Screening Phase, subjects were randomized to one of two treatment groups in a 1:1 ratio and received Compound 1 (SP-624) or placebo over a treatment period of four weeks (Treatment Group #1: SP-624 20 mg/day; Treatment Group #2: Placebo).
(§3) Prior to initiating the 4-week treatment period, subjects completed a Screening/Baseline period of up to 28 days, during which time all screening assessments were performed, and any current depression medications discontinued. All screening assessments were completed before discontinuing any current depression medications. Subjects returned for a Baseline Visit to complete efficacy and safety assessments. During the treatment period, subjects returned to the investigative site to complete efficacy and safety assessments at the end of Weeks 1, 2, 3, and 4. After the final dose of study drug, subjects completed a follow-up period of two weeks and returned at the end of Weeks 5 and 6. Subjects may be treated with anti-depressant medications according to physician recommendations after completion of the Week 5 Visit.
(§4) Each dose of Compound 1 was supplied as two capsules, each containing 10 mg of active pharmaceutical ingredient (API). Matching placebo capsules identical in shape and color to the active capsules were used.
The study included several measurements related to cognitive function. The first is the QIDS-SR) Item #10 Concentration/Decision Making. The answer scale is: 0—There is no change in my usual capacity to concentrate or make decisions; 1—I occasionally feel indecisive or find that my attention wanders; 2—Most of the time, I struggle to focus my attention or to make decisions; 3—I cannot concentrate well enough to read or cannot make even minor decisions.

[2] = test system: adult subjects with major depressive disorder (MDD); assay: Phase 2 clinical trial in MDD: HAM-D Item #17 Retardation; assay type: in vivo, human; details: 20 mg/day; for HAM-D Item #17 Retardation Change From Baseline, Max / HAM-D Item #17 Retardation Change From Baseline, Mean (SD) / HAM-D Item #17 Retardation Change From Baseline, Median / HAM-D Item #17 Retardation Change From Baseline, Min / HAM-D Item #17 Retardation score, Max / HAM-D Item #17 Retardation score, Mean (SD) / HAM-D Item #17 Retardation score, Median / HAM-D Item #17 Retardation score, Min: mITT, Females
Description: as §2, §3, §4
The second cognitive function measurement is HAM-D Item #17 Retardation (slowness of thought and speech, impaired ability to concentrate, decreased motor activity). The answer scale is: 0—Normal speech and thought; 1—Slight retardation at interview (mild psychomotor retardation); 2—Obvious retardation at interview (moderate, some difficulty with interview, noticeable pauses and slowness of thought); 3—Interview difficult (severe psychomotor retardation, very long pauses); 4—Complete stupor (extreme retardation, interview barely possible).

COC1=CC(=O)C[C@@H](C)[C@]12Oc1c(Cl)c(-c3nnc(C)o3)cc(OC)c1C2=O [Compound 1, (2S,6′R)-7-Chloro-2′,4-dimethoxy-6′-methyl-6-(5-methyl-1,3,4-oxadiazol-2-yl)-3H-spiro[1-benzofuran-2,1′-cyclohex[2]ene]-3,4′-dione]
novelty discrimination index (NDI) reduced by scopolamine (Long-Evans rats): significantly improved
sub-chronic PCP-induced cognitive deficits in the NDI (Wistar rats; 0.01 mg/kg): not
sub-chronic PCP-induced cognitive deficits in the NDI (Wistar rats; 0.1 and 1 mg/kg): significantly attenuated
LTP compared to vehicle controls (rats): increased LTP
QIDS-SR Item #10 Change from Baseline, Max ([1]; Week 2): 1
QIDS-SR Item #10 Change from Baseline, Mean (SD) ([1]; Week 2): −0.3 (0.71)
QIDS-SR Item #10 Change from Baseline, Median ([1]; Week 2): 0.0
QIDS-SR Item #10 Change from Baseline, Min ([1]; Week 2): −3
QIDS-SR Item #10 score, Max ([1]; Week 2): 3
QIDS-SR Item #10 score, Mean (SD) ([1]; Week 2): 1.5 (0.82)
QIDS-SR Item #10 score, Median ([1]; Week 2): 2.0
QIDS-SR Item #10 score, Min ([1]; Week 2): 0
QIDS-SR Item #10 Change from Baseline, Max ([1]; Week 4): 1
QIDS-SR Item #10 Change from Baseline, Mean (SD) ([1]; Week 4): −0.6 (0.80)
QIDS-SR Item #10 Change from Baseline, Median ([1]; Week 4): 0.0
QIDS-SR Item #10 Change from Baseline, Min ([1]; Week 4): −3
QIDS-SR Item #10 score, Max ([1]; Week 4): 3
QIDS-SR Item #10 score, Mean (SD) ([1]; Week 4): 1.2 (0.86)
QIDS-SR Item #10 score, Median ([1]; Week 4): 1.0
QIDS-SR Item #10 score, Min ([1]; Week 4): 0
QIDS-SR Item #10 Concentration/Decision Making, improvement in score vs placebo ([1]; by week 4 of treatment): greater improvement in score
HAM-D Item #17 Retardation Change From Baseline, Max ([2]; Week 2): 2
HAM-D Item #17 Retardation Change From Baseline, Mean (SD) ([2]; Week 2): −0.2 (0.79)
HAM-D Item #17 Retardation Change From Baseline, Median ([2]; Week 2): 0
HAM-D Item #17 Retardation Change From Baseline, Min ([2]; Week 2): −2
HAM-D Item #17 Retardation score, Max ([2]; Week 2): 2
HAM-D Item #17 Retardation score, Mean (SD) ([2]; Week 2): 0.6 (0.71)
HAM-D Item #17 Retardation score, Median ([2]; Week 2): 0
HAM-D Item #17 Retardation score, Min ([2]; Week 2): 0
HAM-D Item #17 Retardation Change From Baseline, Max ([2]; Week 4): 1
HAM-D Item #17 Retardation Change From Baseline, Mean (SD) ([2]; Week 4): −0.4 (0.82)
HAM-D Item #17 Retardation Change From Baseline, Median ([2]; Week 4): 0
HAM-D Item #17 Retardation Change From Baseline, Min ([2]; Week 4): −2
HAM-D Item #17 Retardation score, Max ([2]; Week 4): 2
HAM-D Item #17 Retardation score, Mean (SD) ([2]; Week 4): 0.4 (0.55)
HAM-D Item #17 Retardation score, Median ([2]; Week 4): 0
HAM-D Item #17 Retardation score, Min ([2]; Week 4): 0
HAM-D Item #17 Retardation, improvement in score vs placebo ([2]; by week 4 of treatment): greater improvement in score
